For the data set, the system named is CCRIS mutagenicity, Ames/micronucleus/aberration tests. The data set is described as follows: CCRIS mutagenicity studies. The settings on record: Test System: UDS HUMAN CELLS; Strain/Indicator: THY INCORP (NON-S-PHASE); Metabolic Activation: RAT, LIVER, S-9, PHENOBARBITAL; Method: LIQUID SCINTILLATION COUNTING

Activity calls are given as the source filed them. No rule for the calls is given here.

`Nc1c(F)cc(-c2cc(F)c(N)c(F)c2)cc1F`: the mutagenic call was “active; positive”.

Source of the values: PubChem BioAssay AID1259407 (Chemical Carcinogenesis Research Information System (CCRIS), 2018).
